# Like-named read-outs stand apart in the source and are kept apart here.
# What was measured:
# Assay type in all cases: cell-based
# CNS cancer cell lines = assay: NCI-60 cytotoxicity, CNS cancer; conditions: Homo sapiens
# Description: (§1) A number of the synthesized compounds (i.e. Tb1-Tb23) were evaluated for their activity against a variety of cancer cell lines, namely the NCI-60 human cancer cell line panel representing leukemia, melanoma, lung, colon, brain, ovary, breast, prostate and kidney types of cancer through the In Vitro Cell Line Screening Project (IVCLSP) of the National Cancer Institute (NCI), and a summary of the results is shown in Table 1. […] As there was interest in the activity in certain other cell lines, these and the remaining compounds (Tb1-Tb41, PTb-D42 and PTb-D43) were subjected to further testing against MES SA (uterine sarcoma cells), MES SA DX (multidrug resistant uterine sarcoma cells), and HEK 293T (human embryonic kidney cells). […] Tubulysins are known to be substrates for Pgp pumps (Xiangming, et al., 2013; Kaur, et al., 2006; Szakacs, et al., 2006) as supported by the observed low activities of all tubulysins tested except Tb28, Tb32 and Tb33.
# [1] = test system: prostate cancer cell lines; assay: NCI-60 cytotoxicity, prostate cancer; conditions: Homo sapiens
# Description: as §1
# [2] = test system: MES SA (uterine sarcoma cells); assay: Cytotoxic assay (CellTiter-Glo, 72 h), MES SA; conditions: Homo sapiens, MES-SA, read-out: IC50 MES SA
# renal cancer cell lines = assay: NCI-60 cytotoxicity, renal cancer; conditions: Homo sapiens
# Description: as §1
# colon cancer cell lines = assay: NCI-60 cytotoxicity, colon cancer; conditions: Homo sapiens
# Description: as §1
# [3] = test system: ovarian cancer cell lines; assay: NCI-60 cytotoxicity, ovarian cancer; conditions: Homo sapiens
# Description: as §1
# [4] = test system: HEK 293T (human embryonic kidney cells); assay: Cytotoxic assay (CellTiter-Glo, 72 h), HEK 293T; conditions: Homo sapiens, HEK-293T, read-out: IC50 HEK 293T
# [5] = test system: non-small cell lung cancer cell lines; assay: NCI-60 cytotoxicity, non-small cell lung cancer; conditions: Homo sapiens
# Description: as §1
# breast cancer cell lines = assay: NCI-60 cytotoxicity, breast cancer; conditions: Homo sapiens
# Description: as §1
# [6] = test system: leukemia cancer cell lines; assay: NCI-60 cytotoxicity, leukemia; conditions: Homo sapiens
# Description: as §1
# melanoma cell lines = assay: NCI-60 cytotoxicity, melanoma; conditions: Homo sapiens
# Description: as §1
# [7] = test system: MES SA DX (multidrug resistant uterine sarcoma cells); assay: Cytotoxic assay (CellTiter-Glo, 72 h), MES SA DX; conditions: Homo sapiens
Structure (SMILES),IC50 ([2]; 72 h) [nM],IC50 ([4]; 72 h) [nM],IC50 [7] [nM],IC50 [2] [nM],IC50 [4] [nM],also measured
"CCC(C)[C@H](NC(=O)[C@H]1CCCCN1C)C(=O)N(C)[C@H](C[C@@H](OC(C)=O)c1nc(C(=O)NC23C4C5C2C2C3C4C52C(=O)OC)cs1)C(C)C (stereo in doubt) [Tb11, Methyl 4-(2-((1R,3R)-1-acetoxy-3-((2S,3S)—N,3-dimethyl-2-((R)-1-methylpiperidine-2-carboxamido)-pentanamido)-4-methylpentyl)thiazole-4-carboxamido)cubane-1-carboxylate]",0.84,0.26,> 50,–,–,"GI50 (CNS cancer cell lines; NCI-60): 1.15 nM; GI50 (CNS cancer cell lines; NCI-60, selected value): 1.15 nM; GI50 ([1]; NCI-60): 1.13 nM; GI50 ([1]; NCI-60, selected value): 1.13 nM; GI50 (renal cancer cell lines; NCI-60): 0.768 nM; GI50 (colon cancer cell lines; NCI-60): 1.14 nM; GI50 (colon cancer cell lines; NCI-60, selected value): 1.14 nM; GI50 ([3]; NCI-60): 0.489 nM; GI50 ([5]; NCI-60): 0.331 nM; GI50 (breast cancer cell lines; NCI-60): 0.428 nM; GI50 ([6]; NCI-60): 0.159 nM; GI50 (melanoma cell lines; NCI-60): 0.349 nM; GI50 (melanoma cell lines; NCI-60, selected value): 0.349 nM"
"CCC(C)[C@H](NC(=O)CN(C)C)C(=O)N(C)[C@H](C[C@@H](OC(C)=O)c1nc(C(=O)NC23C4C5C2C2C3C4C52C(=O)OC)cs1)C(C)C (stereo in doubt) [Tb13, Methyl 4-(2-((6S,9R,11R)-6-((S)-sec-butyl)-9-isopropyl-2,8-dimethyl-4,7,13-trioxo-12-oxa-2,5,8-triaza-tetradecan-11-yl)thiazole-4-carboxamido)cubane-1-carboxylate]",> 50,> 50,> 50,–,–,"GI50 (CNS cancer cell lines; NCI-60, selected value): 117 nM; GI50 ([1]; NCI-60, selected value): 167 nM; GI50 (renal cancer cell lines; NCI-60, selected value): 167 nM; GI50 (colon cancer cell lines; NCI-60, selected value): 122 nM; GI50 ([3]; NCI-60, selected value): 111 nM; GI50 ([5]; NCI-60, selected value): 142 nM; GI50 (breast cancer cell lines; NCI-60, selected value): 136 nM; GI50 ([6]; NCI-60, selected value): 13.8 nM; GI50 (melanoma cell lines; NCI-60, selected value): 40.2 nM"
"COC(=O)[C@@H](C)C[C@H](Cc1ccccc1)NC(=O)c1csc([C@@H](C[C@H](C(C)C)N(C)C(=O)[C@@H](NC(=O)[C@H]2CCCCN2C)c2ccc(F)cc2)OC(C)=O)n1 [Tb29, (2S,4R)-Methyl 4-(2-((1R,3R)-1-acetoxy-3-((S)-2-(4-fluorophenyl)-N-methyl-2-((R)-1-methylpiperidine-2-carboxamido)acetamido)-4-methylpentyl)thiazole-4-carboxamido)-2-methyl-5-phenylpentan oate]",2.61,2.24,500,–,–,–
"CC(=O)O[C@H](C[C@H](C(C)C)N(C)C(=O)[C@@H](NC(=O)[C@H]1CCCCN1C)C1CC1)c1nc(C(=O)N[C@@H](Cc2ccccc2)C[C@H](C)C(=O)O)cs1 [Tb30, (2S,4R)-4-(2-((1R,3R)-1-Acetoxy-3-((S)-2-cyclopropyl-N-methyl-2-((R)-1-methylpiperidine-2-carboxamido)acetamido)-4-methylpentyl)thiazole-4-carboxamido)-2-methyl-5-phenylpentanoic Acid]",4.09,0.35,> 100,–,–,–
"COC(=O)[C@@H](C)C[C@H](Cc1ccccc1)NC(=O)c1csc([C@@H](C[C@H](C(C)C)N(C)C(=O)[C@@H](NC(=O)[C@H]2CCCCN2C)C(C)C)OC(C)=O)n1 [Tb32, (2S,4R)-Methyl 4-(2-((1R,3R)-1-acetoxy-3-((S)—N,3-dimethyl-2-((R)-1-methylpiperidine-2-carboxamido)butanamido)-4-methylpentyl)thiazole-4-carboxamido)-2-methyl-5-phenylpentanoate]",0.012,0.002,1.29,0.012,0.002,–
"COC(=O)[C@@H](C)C[C@H](Cc1ccccc1)NC(=O)c1csc([C@@H](C[C@H](C(C)C)N(C)C(=O)[C@@H](NC(=O)[C@H]2CCCCN2C)C2CCCCC2)OC(C)=O)n1 [Tb33, (2S,4R)-Methyl 4-(2-((1R,3R)-1-acetoxy-3-((S)-2-cyclohexyl-N-methyl-2-((R)-1-methylpiperidine-2-carboxamido)acetamido)-4-methylpentyl)thiazole-4-carboxamido)-2-methyl-5-phenylpentanoate]",0.066,0.048,101,0.066,0.048,–
"CC[C@H](C)[C@H](NC(=O)c1ncccn1)C(=O)N(C)[C@H](C[C@@H](OC(C)=O)c1nc(C(=O)N[C@@H](Cc2ccccc2)C[C@H](C)C(=O)OC)cs1)C(C)C [Tb34, (2S,4R)-methyl 4-(2-((1R,3R)-1-acetoxy-3-((2S,3S)—N,3-dimethyl-2-(pyrimidine-2-carboxamido)pentanamido)-4-methylpentyl)thiazole-4-carboxamido)-2-methyl-5-phenylpentanoate]",> 1000,> 500,> 1000,–,–,–
"CC[C@H](C)[C@H](NC(=O)c1cnccn1)C(=O)N(C)[C@H](C[C@@H](OC(C)=O)c1nc(C(=O)N[C@@H](Cc2ccccc2)C[C@H](C)C(=O)OC)cs1)C(C)C [Tb35, (2S,4R)-methyl 4-(2-((1R,3R)-1-acetoxy-3-((2S,3S)—N,3-dimethyl-2-(pyrazine-2-carboxamido)pentanamido)-4-methylpentyl)thiazole-4-carboxamido)-2-methyl-5-phenylpentanoate]",> 1000,> 500,> 1000,–,–,–
"COC(=O)[C@@H](C)C[C@H](Cc1ccccc1)NC(=O)c1cccc([C@@H](C[C@H](C(C)C)N(C)C(=O)[C@@H](NC(=O)[C@H]2CCCCN2C)C2CC2)OC(C)=O)n1 [Tb36, Methyl (2S,4R)-4-(6-((1R,3R)-1-acetoxy-3-((S)-2-cyclopropyl-N-methyl-2-((R)-1-methylpiperidine-2-carboxamido)acetamido)-4-methylpentyl)picolinamido)-2-methyl-5-phenylpentanoate]",0.308,0.631,> 1000,0.308,0.631,–
"CC(=O)O[C@H](C[C@H](C(C)C)N(C)C(=O)[C@@H](NC(=O)[C@H]1CCCCN1C)C1CC1)c1cccc(C(=O)N[C@@H](Cc2ccccc2)C[C@H](C)C(=O)O)n1 [Tb37, (2S,4R)-4-(6-((1R,3R)-1-Acetoxy-3-((S)-2-cyclopropyl-N-methyl-2-((R)-1-methylpiperidine-2-carbox-amido)acetamido)-4-methylpentyl)picolinamido)-2-methyl-5-phenylpentanoic Acid]",14.4,3.52,> 1000,–,–,–
"CC[C@H](C)[C@H](NC(=O)[C@H]1CCCCN1C)C(=O)N(C)[C@H](C[C@@H](OC(C)=O)c1cccc(C(=O)N[C@@H](Cc2ccccc2)C[C@H](C)C(=O)OC)n1)C(C)C [Tb38, Methyl (2S,4R)-4-(6-((1R,3R)-1-acetoxy-3-((2S,3S)—N,3-dimethyl-2-((R)-1-methylpiperidine-2-carboxamido)pentanamido)-4-methylpentyl)picolinamido)-2-methyl-5-phenylpentanoate]",0.357,0.574,< 500,0.357,0.574,–
"CC[C@H](C)[C@H](NC(=O)[C@H]1CCCCN1C)C(=O)N(C)[C@H](C[C@@H](OC(C)=O)c1cccc(C(=O)N[C@@H](Cc2ccccc2)C[C@H](C)C(=O)O)n1)C(C)C [Tb39, (2S,4R)-4-(6-((1R,3R)-1-acetoxy-3-((2S,3S)—N,3-dimethyl-2-((R)-1-methylpiperidine-2 carboxamido)pentanamido)-4-methylpentyl)picolinamido)-2-methyl-5-phenylpentanoic Acid]",0.891,0.194,< 500,0.891,0.194,–
"COC(=O)[C@@H](C)C[C@H](Cc1ccc(F)cc1)NC(=O)c1csc([C@@H](C[C@H](C(C)C)N(C)C(=O)[C@@H](NC(=O)[C@H]2CCCCN2C)C(C)C)OC(C)=O)n1 [Tb40, Methyl(2S,4R)-4-(2-((1R,3R)-1-acetoxy-3-((S)—N,3-dimethyl-2-((R)-1-methylpiperidine-2-carboxamido)butanamido)-4-methylpentyl)thiazole-4-carboxamido)-5-(4-fluorophenyl)-2-methylpentanoate]",15.6,> 1000,> 1000,–,–,–
"COC(=O)[C@@H](C)C[C@H](Cc1cn(C)c2ccccc12)NC(=O)c1csc([C@@H](C[C@H](C(C)C)N(C)C(=O)[C@@H](NC(=O)[C@H]2CCCCN2C)C(C)C)OC(C)=O)n1 [Tb41, Methyl(2S,4R)-4-(2-((1R,3R)-1-acetoxy-3-((S)—N,3-dimethyl-2-((R)-1-methylpiperidine-2-carboxamido)butanamido)-4-methylpentyl)thiazole-4-carboxamido)-2-methyl-5-(1-methyl-1H-indol-3-yl)pen-tanoate]",> 1000,21.1,> 1000,–,–,–
